In patent US20180338980A1, “AROMATIC SULFONAMIDE DERIVATIVES” (BAYER PHARMA AKTIENGESELLSCHAFT, priority 2015, published 2018):
Where “and” joins values, the source holds several entries; their conditions need not be identical. Equal values may be shown once.

Target: T1, P2X4 (Homo sapiens, UniProt Q99571)
T1 sequence (Q99571 1-388): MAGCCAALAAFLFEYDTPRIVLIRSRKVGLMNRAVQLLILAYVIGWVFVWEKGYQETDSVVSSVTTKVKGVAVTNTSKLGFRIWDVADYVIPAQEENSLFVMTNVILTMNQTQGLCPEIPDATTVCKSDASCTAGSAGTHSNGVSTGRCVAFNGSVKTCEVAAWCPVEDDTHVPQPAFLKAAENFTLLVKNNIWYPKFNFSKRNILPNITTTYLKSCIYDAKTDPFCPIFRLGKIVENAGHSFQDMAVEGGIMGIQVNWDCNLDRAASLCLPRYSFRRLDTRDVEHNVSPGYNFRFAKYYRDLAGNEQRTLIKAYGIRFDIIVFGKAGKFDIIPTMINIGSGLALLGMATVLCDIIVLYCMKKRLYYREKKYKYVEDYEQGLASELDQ
Test: Assay B: human P2X4 receptor cell line, mitochondrial photina luminescence (agonist Bz-ATP at EC50)
Assay type: cell-based
Parameters: host or cells: HEK 293 (recombinant, constitutively expressing; with mitochondrial photina in Assay B)
Settings: HEK human P2X4 cell line, photina luminescence, agonist Bz-ATP at EC50, average; for Emax: read-out: human P2X4 Assay B avg Efficacy
In short: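 Recombinant cell line constitutively expressing human P2X4 and mitochondrial photina photoprotein, reconstituted with coelenterazine. Receptor stimulated with Bz-ATP at EC50; calcium influx read immediately as luminescence.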

| Compound | IC50 | Emax [%] |
| --- | --- | --- |
| NS(=O)(=O)c1cc(NC(=O)Cc2cc(F)c(F)cc2Cl)ccc1Oc1cccc(Cl)c1 [Example 123, 2-(2-Chloro-4,5-difluorophenyl)-N-[4-(3-chlorophenoxy)-3-sulfamoylphenyl]acetamide] | 0.369 µM | 55 |
| NS(=O)(=O)c1cc(NC(=O)Cc2ccccc2Cl)ccc1Oc1ccnc(Cl)c1 [Example 003, 2-(2-Chlorophenyl)-N-{4-[(2-chloropyridin-4-yl)oxy]-3-sulfamoylphenyl}acetamide] | 6.34 µM | 50 |
| NS(=O)(=O)c1cc(NC(=O)Cc2cccc(F)c2)ccc1Oc1cccc(Cl)c1 [Example 084, N-[4-(3-Chlorophenoxy)-3-sulfamoylphenyl]-2-(3-fluorophenyl)acetamide] | 0.213 µM | 57 |
| CCOc1ccccc1CC(=O)Nc1ccc(Oc2cccc(Cl)c2)c(S(N)(=O)=O)c1 [Example 088, N-[4-(3-Chlorophenoxy)-3-sulfamoylphenyl]-2-(2-ethoxyphenyl)acetamide] | 0.19 µM | 75 |
| CNC(=O)c1cccc(CC(=O)Nc2ccc(Oc3cccc(Cl)c3)c(S(N)(=O)=O)c2)c1 [Example 203, 3-(2-{[4-(3-Chlorophenoxy)-3-sulfamoylphenyl]amino}-2-oxoethyl)-N-methylbenzamide] | 1.35 µM | 69 |
| Cc1c(C#N)cccc1Oc1ccc(NC(=O)Cc2ccccc2Cl)cc1S(N)(=O)=O [Example 046, 2-(2-Chlorophenyl)-N-[4-(3-cyano-2-methylphenoxy)-3-sulfamoylphenyl]acetamide] | 0.841 µM | 75 |
| NS(=O)(=O)c1cc(NC(=O)Cc2cc(C(F)(F)F)ccc2Cl)ccc1Oc1cccc(Cl)c1 [Example 109, N-[4-(3-Chlorophenoxy)-3-sulfamoylphenyl]-2-[2-chloro-5-(trifluoromethyl)phenyl]acetamide] | 0.825 µM | 56 |
| NS(=O)(=O)c1cc(NC(=O)Cc2ccccc2Cl)ccc1OCC1CCOC1 (stereo not shown) [Example 162, 2-(2-Chlorophenyl)-N-[3-sulfamoyl-4-(tetrahydrofuran-3-ylmethoxy)phenyl]acetamide] | 0.335 µM | 66 |
| NS(=O)(=O)c1cc(NC(=O)Cc2c(Cl)ccc(Cl)c2Cl)ccc1Oc1cccc(Cl)c1 [Example 125, N-[4-(3-Chlorophenoxy)-3-sulfamoylphenyl]-2-(2,3,6-trichlorophenyl)acetamide] | 0.506 µM | 97 |
| NS(=O)(=O)c1cc(NC(=O)Cc2ccc(Cl)cn2)ccc1Oc1cccc(Cl)c1 [Example 209, N-[4-(3-Chlorophenoxy)-3-sulfamoylphenyl]-2-(5-chloropyridin-2-yl)acetamide] | 0.742 µM | 64 |

More lines, now with the values ahead:

| IC50 | Emax [%] | Compound |
| --- | --- | --- |
| 8.54 µM and 8.06 µM and > 16 µM | 70 | CN1CCC(Oc2ccc(NC(=O)Cc3ccccc3Cl)cc2S(N)(=O)=O)C1 (stereo not shown) [Example 222, 2-(2-Chlorophenyl)-N-{4-[(1-methylpyrrolidin-3-yl)oxy]-3-sulfamoylphenyl}acetamide] |
| 1.89 µM | 61 | Cc1cc(CC(=O)Nc2ccc(Oc3cccc(Cl)c3)c(S(N)(=O)=O)c2)c(Cl)cc1Br [Example 118, 2-(4-Bromo-2-chloro-5-methylphenyl)-N-[4-(3-chlorophenoxy)-3-sulfamoylphenyl]acetamide] |
|  | 65 | C[C@H](C(=O)Nc1ccc(Oc2cccc(Cl)c2)c(S(N)(=O)=O)c1)c1ccccc1 [Example 194, (2S)—N-[4-(3-chlorophenoxy)-3-sulfamoylphenyl]-2-phenylpropanamide] |
|  | 53 | CC(C(=O)Nc1ccc(Oc2cccc(Cl)c2)c(S(N)(=O)=O)c1)c1ccccc1 (stereo not shown) [Example 184, N-[4-(3-Chlorophenoxy)-3-sulfamoylphenyl]-2-phenylpropanamide] |
| 0.442 µM | 71 | NS(=O)(=O)c1cc(NC(=O)Cc2ccccc2SC(F)(F)F)ccc1Oc1cccc(Cl)c1 [Example 090, N-[4-(3-Chlorophenoxy)-3-sulfamoylphenyl]-2-{2-[(trifluoromethyl)sulfanyl]phenyl}acetamide] |
